According to patent publication US10912841B2, “Antibody-drug-conjugate and its use for the treatment of cancer” (PIERRE FABRE MEDICAMENT, priority 2014, dated 2021):
Where a SMILES comes first, the peptide text is derived from it. [ ]: non-standard residue; d: D form. The star is where a group is joined. Dolaproine = CO[C@@H]([C@@H]1CCCN1)[C@@H](C)C(=O)O; Dil = CC[C@H](C)[C@H](NC)[C@@H](CC(=O)O)OC; X2 = CC(C)[C@@H](C(=O)*)N(C)CCc1ccc(O)cc1

Assays:
A549 cells = test: ATPLITE antiproliferative assay, A549; type: cell-based; conditions: Homo sapiens, 72 h drug treatment
Method: (§1) A549 (Non Small Cell Lung Cancer—ATCC® CCL-185™) and MDA-MB-231 (breast adenocarcinoma—ATCC® HTB-26m) cells were cultured in Minimum Essential Medium Eagle (MEM) with 5% fetal calf serum (FCS) and Dulbecco's modified Eagle Medium (DMEM) with 10% FCS respectively. MCF7 (breast ductal carcinoma—ATCC® HTB-22m) and SN-12C (kidney carcinoma—ATCC) cells were maintained in RPMI1640 medium (without phenol red for MCF7 cells) containing 10% FCS. All the media were supplemented with fungizone (1.25 μg/mL) and penicillin-streptomycin (100 U/100 μg/mL). Cells were cultured under standard conditions in an incubator at 37° C., 5% CO2 and 95% atmospheric humidity.
(§2) Selected drugs were investigated for their antiproliferative activity using an ATPLITE® proliferation assay (Perkin Elmer, Villebon sur Yvette, France) on a comprehensive panel of 4 cell lines. […] On day 4, cell viability was evaluated by dosing the ATP released by viable cells. The number of viable cells was analyzed in comparison with the number of solvent treated cells. The EC50 values were determined with curve fitting analysis (non linear regression model with a sigmoidal dose response, variable hill slope coefficient), performed with the algorithm provided by the […]® Software ([…]® Software Inc., CA, USA).

MDA-MB-231 cells = test: ATPLITE antiproliferative assay, MDA-MB-231; type: cell-based; conditions: Homo sapiens, 72 h drug treatment
Method: as §1, §2

Question: Which results are given for CC[C@H](C)[C@@H]([C@@H](CC(=O)N1CCC[C@H]1[C@H](OC)[C@@H](C)C(=O)N[C@@H](Cc1ccccc1)C(=O)OC)OC)N(C)C(=O)[C@@H](NC(=O)[C@H](C(C)C)N(C)CCc1ccc(O)cc1)C(C)C [Compound 27, methyl (S)-2-((2R,3R)-3-((S)-1-((3R,4S,5S)-4-((S)-2-((S)-2-((4-hydroxyphenethyl)(methyl)amino)-3-methylbutanamido)-N,3-dimethylbutanamido)-3-methoxy-5-methylheptanoyl)pyrrolidin-2-yl)-3-methoxy-2-methylpropanamido)-3-phenylpropanoate, trifluoroacetic acid] (X2-V[Dil][Dolaproine]F-OMe)?
Answer: EC50 (A549 cells): 0.086 nM; EC50 (MDA-MB-231 cells): 0.12 nM
